Measurements as given in patent US20250042916A1 (ACONCAGUA BIO, INC., priority 2023, published 2025).
pEC50: −log10 of the molar value.

These compounds were tested against human calcitonin receptor (CTR) and RAMP3 (AMY3) in COS-7 cells (Homo sapiens, UniProt O60896+P30988) (assay: Amylin Receptor cAMP Assay I). Settings: values marked *: Amylin Receptor cAMP Assay I; COS-7/AMY3 cells; read-out: Amylin Receptor cAMP Stimulation Activity: EC50.
Assay type: cell-based
Method in brief: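 COS-7 cells stably co-expressing human CTR and RAMP3 (AMY3) were stimulated with serially diluted compounds (4-fold) in DPBS with 0.5 mM IBMX and 0.1% BSA for 30 min at 37 °C, 1000 cells/well. cAMP accumulation was measured by HTRF (cAMP-d2/anti-cAMP cryptate, 1 h RT) read at 665/615 nm.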

Chain of human calcitonin receptor (CTR) and RAMP3 (AMY3) in COS-7 cells (O60896 24-148, one chain of several): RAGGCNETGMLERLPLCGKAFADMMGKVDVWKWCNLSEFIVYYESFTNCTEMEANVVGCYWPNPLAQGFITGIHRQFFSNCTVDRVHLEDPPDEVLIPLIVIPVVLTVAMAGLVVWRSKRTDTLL

SMILES	pEC50
Cc1nnc(-c2c(C34CC(C(F)F)(C3)C4)nc(CC(C)C)c(C(N)=O)c2-c2ccc(C(=O)NCc3ccc(F)c(F)c3)s2)o1 [Compound 190, 4-(5-((3,4-difluorobenzyl)carbamoyl)thiophen-2-yl)-6-(3-(difluoromethyl)bicyclo[1.1.1]pentan-1-yl)-2-isobutyl-5-(5-methyl-1,3,4-oxadiazol-2-yl)nicotinamide]	5.39
Cc1nnc(-c2c(CCc3ccc(F)cc3)nc(CC(C)C)c(C(N)=O)c2CCOC(=O)NCc2ccc(F)c(F)c2)o1 [Compound 145]	5.20
Cc1nnc(-c2c(CC3CC(F)(F)C3)nc(CC(C)C)c(C(N)=O)c2-c2ccc(C(=O)NCc3ccc(F)c(F)c3)s2)o1 [Compound 193, 4-(5-((3,4-difluorobenzyl)carbamoyl)thiophen-2-yl)-6-((3,3-difluorocyclobutyl)methyl)-2-isobutyl-5-(5-methyl-1,3,4-oxadiazol-2-yl)nicotinamide]	5.45
Cc1nnc(-c2c(COc3ccc(F)cc3)nc(CC(C)C)c(C(N)=O)c2-c2cc3ccnc(N[C@@H]4CCc5ncccc54)c3s2)o1 [Compound 173, (R)-4-(7-((6,7-dihydro-5H-cyclopenta[b]pyridin-5-yl)amino)thieno[2,3-c]pyridin-2-yl)-6-((4-fluorophenoxy)methyl)-2-isobutyl-5-(5-methyl-1,3,4-oxadiazol-2-yl)nicotinamide]	6.39
Cc1nnc(-c2c(CCc3cnn(C)c3)nc(CC(C)C)c(C(N)=O)c2-c2ccc(C(=O)NCc3ccc(F)c(F)c3)s2)o1 [Compound 184, 4-(5-((3,4-difluorobenzyl)carbamoyl)thiophen-2-yl)-2-isobutyl-5-(5-methyl-1,3,4-oxadiazol-2-yl)-6-(2-(1-methyl-1H-pyrazol-4-yl)ethyl)nicotinamide]	5.97
Cc1nnc(-c2c(CCc3ccc(F)cc3)nc(CC(C)C)c(S(C)(=O)=O)c2-c2ccc(C(=O)NCc3ccc(F)c(F)c3)s2)o1 [Compound 155]	< 6.00
Cc1ccc(CNc2nccc3cc(-c4c(C(N)=O)c(CC(C)C)nc(CCc5ccc(F)cc5)c4-c4nnc(C)o4)sc23)cn1 [Compound 157]	6.20
Cc1nnc(-c2c(CCc3ccc(F)cc3)nc(CC(C)C)c(C(N)=O)c2-c2ccc3c(c2)CCC3NCc2ccc(F)c(F)c2)o1 (centres unmarked) [Compound 143, 4-(1-{[(3,4-difluorophenyl)methyl]amino}-5-indanyl)-6-[2-(p-fluorophenyl)ethyl]-2-isobutyl-5-(5-methyl-1,3,4-oxadiazol-2-yl)nicotinamide]	6.43
Cc1nnc(-c2c(COc3ccc(F)cc3)nc(CC(C)C)c(C(N)=O)c2-c2ccc(C(=O)NCc3ccc(F)c(F)c3)s2)o1 [Compound 164]	6.49
Cc1nnc(-c2c(CCC(F)F)nc(CC(C)C)c(C(N)=O)c2-c2ccc(C(=O)NCc3ccc(F)c(F)c3)s2)o1 [Compound 189, 4-(5-((3,4-difluorobenzyl)carbamoyl)thiophen-2-yl)-6-(3,3-difluoropropyl)-2-isobutyl-5-(5-methyl-1,3,4-oxadiazol-2-yl)nicotinamide]	< 6.00
Cc1nnc(-c2c(CCc3ccc(F)cc3)nc(NC(C)C)c(C(N)=O)c2-c2ccc(C(=O)NCc3ccc(F)c(F)c3)s2)o1 [Compound 168, 4-(5-((3,4-difluorobenzyl)carbamoyl)thiophen-2-yl)-6-(4-fluorophenethyl)-2-(isopropylamino)-5-(5-methyl-1,3,4-oxadiazol-2-yl)nicotinamide]	6.27
CC(C)Cc1nc(CCc2ccc(F)cc2)c(-c2nc(C(C)C)no2)c(-c2ccc(C(=O)NCc3ccc(F)c(F)c3)s2)c1C(N)=O [Compound 103, N-(3,4-difluorophenyl)methyl-5-{5-carbamoyl-2-[2-(p-fluorophenyl)ethyl]-6-isobutyl-3-(3-isopropyl-1,2,4-oxadiazol-5-yl)-4-pyridyl}-2-thenamide]	6.50

Compounds with a higher pEC50, results first:

pEC50	SMILES
6.55	Cc1nnc(-c2c(CCC3CCOCC3)nc(CC(C)C)c(C(N)=O)c2-c2cc3ccnc(N[C@@H]4CCc5ncccc54)c3s2)o1 [Compound 196, (R)-4-(7-((6,7-dihydro-5H-cyclopenta[b]pyridin-5-yl)amino)thieno[2,3-c]pyridin-2-yl)-2-isobutyl-5-(5-methyl-1,3,4-oxadiazol-2-yl)-6-(2-(tetrahydro-2H-pyran-4-yl)ethyl)nicotinamide]
6.64	COc1cccc2c1CC[C@H]2Nc1nccc2cc(-c3c(C(N)=O)c(CC(C)C)nc(CCC4CCOCC4)c3-c3ncc(C)o3)sc12 [Compound 198, (R)-2-isobutyl-4-(7-((4-methoxy-2,3-dihydro-1H-inden-1-yl)amino)thieno[2,3-c]pyridin-2-yl)-5-(5-methyloxazol-2-yl)-6-(2-(tetrahydro-2H-pyran-4-yl)ethyl)nicotinamide]
6.91	COC(Cc1nc(CC(C)C)c(C(N)=O)c(-c2ccc(C(=O)NCc3ccc(F)c(F)c3)s2)c1-c1nnc(C)o1)c1ccc(F)cc1 (centres unmarked) [Compound 186, 4-(5-((3,4-difluorobenzyl)carbamoyl)thiophen-2-yl)-6-(2-(4-fluorophenyl)-2-methoxyethyl)-2-isobutyl-5-(5-methyl-1,3,4-oxadiazol-2-yl)nicotinamide]
7.04	CC(C)Cc1nc(CCc2ccc(F)cc2)c(-c2cnn(C)c2)c(-c2ccc(C(=O)NCc3ccc(F)c(F)c3)s2)c1C(N)=O [Compound 159]
7.07	Cc1noc(-c2c(CCc3ccc(F)cc3)nc(CC(C)C)c(C(N)=O)c2-c2ccc(C(=O)NCc3ccc(F)c(F)c3)s2)n1 [Compound 102, N-(3,4-difluorophenyl)methyl-5-{5-carbamoyl-2-[2-(p-fluorophenyl)ethyl]-6-isobutyl-3-(3-methyl-1,2,4-oxadiazol-5-yl)-4-pyridyl}-2-thenamide]
7.15	Cc1nnc(-c2c(CCCC(C)C)nc(CC(C)C)c(C(N)=O)c2-c2ccc(C(=O)NCc3ccc(F)c(F)c3)s2)o1 [Compound 108, 4-(5-((3,4-difluorobenzyl)carbamoyl)thiophen-2-yl)-2-isobutyl-5-(5-methyl-1,3,4-oxadiazol-2-yl)-6-(4-methylpentyl)nicotinamide]
7.17	CC(C)Cc1nc(CCc2ccc(F)cc2)c(-c2ccn(C)n2)c(-c2ccc(C(=O)NCc3ccc(F)c(F)c3)s2)c1C(N)=O [Compound 204, 4-(5-((3,4-difluorobenzyl)carbamoyl)thiophen-2-yl)-6-(4-fluorophenethyl)-2-isobutyl-5-(1-methyl-1H-pyrazol-3-yl)nicotinamide]
7.70	Cc1nnc(-c2c(CCC3CCCCC3)nc(CC(C)C)c(C(N)=O)c2-c2ccc(C(=O)NCc3ccc(F)c(F)c3)s2)o1 [Compound 109, 6-(2-cyclohexylethyl)-4-(5-((3,4-difluorobenzyl)carbamoyl)thiophen-2-yl)-2-isobutyl-5-(5-methyl-1,3,4-oxadiazol-2-yl)nicotinamide]
7.86	COc1cc(F)cc(CNC(=O)c2ccc(-c3c(C(N)=O)c(CC(C)C)nc(CCc4ccc(F)cc4)c3-c3nnc(C)o3)s2)c1 [Compound 116, N-[(3-fluoro-5-methoxyphenyl)methyl]-5-{5-carbamoyl-2-[2-(p-fluorophenyl)ethyl]-6-isobutyl-3-(5-methyl-1,3,4-oxadiazol-2-yl)-4-pyridyl}-2-thenamide]
8.46	Cc1cnc(-c2c(CCc3ccc(F)cc3)nc(CC(C)C)c(C(N)=O)c2-c2ccc(C(=O)NCc3ccc(F)c(F)c3)s2)o1 [Compound 150, N-(3,4-difluorophenyl)methyl-5-{5-carbamoyl-2-[2-(p-fluorophenyl)ethyl]-6-isobutyl-3-(5-methyl-1,3-oxazol-2-yl)-4-pyridyl}-2-thenamide]

The compounds below were run against T1, human calcitonin receptor (CTR) in COS-7 cells (Homo sapiens, UniProt P30988) (assay: Calcitonin Receptor (CTR) cAMP Assay). Settings: COS7-human CTR Clone #2 cells; read-out: Calcitonin Receptor cAMP Stimulation Activity: EC50.
T1 construct: expressed in transfected cells; host or cells: COS-7 (COS7-human CTR Clone #2)
T1 sequence (P30988 25-474): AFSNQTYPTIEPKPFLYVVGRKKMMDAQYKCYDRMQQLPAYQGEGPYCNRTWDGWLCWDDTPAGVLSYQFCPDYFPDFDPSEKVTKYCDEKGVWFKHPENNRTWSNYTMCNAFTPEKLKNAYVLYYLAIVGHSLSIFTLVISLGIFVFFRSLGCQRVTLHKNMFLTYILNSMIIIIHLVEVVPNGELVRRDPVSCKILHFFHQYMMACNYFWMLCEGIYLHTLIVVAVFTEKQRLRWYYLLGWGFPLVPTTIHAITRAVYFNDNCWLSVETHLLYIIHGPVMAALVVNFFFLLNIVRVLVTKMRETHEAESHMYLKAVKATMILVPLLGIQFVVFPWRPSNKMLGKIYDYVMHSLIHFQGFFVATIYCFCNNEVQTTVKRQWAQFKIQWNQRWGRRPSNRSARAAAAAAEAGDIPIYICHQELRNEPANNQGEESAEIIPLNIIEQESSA
Assay type: cell-based
Text: Calcitonin Receptor (CTR) cAMP Assay
The calcitonin receptor (CTR) belongs to the subfamily of GPCRs known as the secretin or ‘B’ family of GPCRs. Like other class B1 GPCRs, the CT receptor family is canonically coupled to Gs-mediated cAMP production, and measurement of cAMP accumulation has been the primary assay used to determine peptide selectivity and potency.
To optimize functional activity directed toward Gas coupling, COS-7 cells were stably transfected with human calcitonin receptor (CTR) to create COS7-human CTR Clone #2 stable cell line. 100× concentration of compound working solutions were prepared with 4-fold serial dilution in 384-well Echo LDV plate (Labcyte, Cat #LP-0200-BC). 200 nL/well 100× concentration of compound working solutions were moved to 384-well white microplate (Perkin Elmer, Cat #6007680) using Labcyte ECHO550. 1×10^5 cells/mL COS7-human CTR Clone #2 cell suspensions prepared with assay buffer [HBSS containing 20 mM HEPES (Gibco, Cat #15630-080), 0.5 mM IBMX (Sigma, Cat #15879) and 0.1% Casein (Sigma, Cat #C4765)], 20 μL cell suspensions were added to each well of previous generated assay plate which already contains 200 nL compound at 100× concentration using ThermoFisher Multidrop Combi (2000 cells/well). Seal the plate and incubate at 37° C. with 5% CO2 for 30 min.
After incubation, the cAMP assay signal was generated using cAMP dynamic 2 kit (Revvity, Cat #62AM4PEC). 10 μL cAMP-d2 working solution was added to each well, followed by […] Anti-cAMP antibody-cryptate working solution which was added to each well using CERTUS FLEX LIQUID DISPENSER. The samples were then incubated at room temperature for 1 hour protected from light. the fluorescence was read at 665 and 615 nm with Reader PerkinElmer EnVision 2105.

pEC50	SMILES
6.13	Cc1nnc(-c2c(C34CC(C(F)F)(C3)C4)nc(CC(C)C)c(C(N)=O)c2-c2ccc(C(=O)NCc3ccc(F)c(F)c3)s2)o1 [Compound 190, 4-(5-((3,4-difluorobenzyl)carbamoyl)thiophen-2-yl)-6-(3-(difluoromethyl)bicyclo[1.1.1]pentan-1-yl)-2-isobutyl-5-(5-methyl-1,3,4-oxadiazol-2-yl)nicotinamide]
